Experimental data: patent US9145402B2, “Aminopyrimidine derivatives as LRRK2 modulators” (Genentech, Inc., priority 2011, dated 2015)

The compounds below were run against LRRK2 (Homo sapiens (Human), UniProt Q5S007, G2019S) (assay: In Vitro LRRK2 LabChip Assay (LRRK2 Ki)).
Assay type: biochemical
Protocol: In Vitro LRRK2 LabChip Assay
This assay was used to determine a compound's potency in inhibiting activity of LRRK2 by determining, Kiapp, IC50, or percent inhibition values. In a polypropylene plate, LRRK2, fluorescently-labeled peptide substrate, ATP and test compound were incubated together. Using a LabChip 3000 (Caliper Life Sciences), after the reaction the substrate was separated by capillary electrophoresis into two populations: phosphorylated and unphosphorylated. The relative amounts of each were quantitated by fluorescence intensity. LRRK2 Ki was determined according to the equation: Y=V0*(1−((x+Ki*(1+S/Km)+Et)/(2*Et)−(((x+Ki*(1+S/Km)+Et)^2−(4*Et*x))^0.5)/(2*Et))). Ki values in Table 4 and elsewhere herein are shown in μM.
Assay conditions and materials used were as follows:
Kinase reaction time: 2 hours
Wild type in 5 mM MgCl2: 80 μM
Solid Support: Black 50 μL volume polypropylene 384 well plate (MatriCal cat #MP101-1-PP)
Non-binding plate: 384 well clear V-bottom polypropylene plates (Greiner cat #781280).
ATP: 10 mM ATP (Cell Signaling cat #9804).
Coating Reagent #3: Coating Reagent #3 (Caliper).
Complete Reaction Buffer: H2O/25 mM Tris, pH 8.0/5 mM MgCl2/2 mM DTT/0.01% Triton X-100.
Stop Solution: H2O/100 mM HEPES, pH 7.2/0.015% Brij-35/0.2% Coating Reagent #3/20 mM EDTA.
Separation Buffer: H2O/100 mM HEPES, pH 7.2/0.015% Brij-35/0.1% Coating Reagent #3/1:200 Coating Reagent #8/10 mM EDTA/5% DMSO.
Compound Plate Preparation:
For serial dilutions, 34.6 μl DMSO was added to columns 3-24. For the assay controls, 37.5 μl DMSO was added to columns 1 and 2 of rows A and P. a,d and 50 μl 25 μM G-028831 (Staurosporine) was added to columns 1 and 2, row B. For the samples: to start at 100 μM, 37.5 μl DMSO was to columns 1 and 2, then 12.5 μl 10 mM compound; to start at 10 μM, 78 μl DMSO was added to columns 1 & 2, then 2 μl 10 mM compound; and to start at 1 μM, 25 μM compound (2 μl 10 mM cmpd+798 μl DMSO) was added to empty columns 1 and 2. A Precision instrument was used to perform 1:3.16 serial dilutions (“PLK_BM_serial_halflog”).
ATP was diluted to 282.1 μM in Complete Kinase Buffer (final concentration was 130 μM).
Total and Blank Preparation:
In Complete Reaction Buffer, substrate was diluted to 4 μM. Equal volumes of Complete Reaction Buffer and 4 μM substrate were combined to obtain the blank. Equal volumes of Complete Reaction Buffer and 4 μM substrate were combined and to the combined solution was added 2× final LRRK2 concentration.
To a 50 μl polypropylene plate, 5 μl/well buffer/substrate was added by hand to Blank wells. A Biomek FX was used to start the kinase reaction (“PLK SAR 23 ATP”). The following were added to the appropriate wells:
5 μl/well compound/ATP in Assay Plate;
5 μl/well kinase/substrate in Assay Plate;
The plate was incubated for 2 hours in the dark. Biomek FX was used to stop the kinase reaction (“PLK Stop”), and 10 μl/well Stop solution was added to the Assay Plate. Results were read on the LabChip 3000.
The LabChip 3000 was run using the job “LRRK2 IC50” with the following job settings:
Downstream voltage: −500 V
Upstream voltage: −2350 V
Post sample buffer sip time: 75 seconds
Post dye buffer sip time: 75 seconds
Final delay time: 200 seconds

Chain of LRRK2 (Q5S007 970-2527 G2019S): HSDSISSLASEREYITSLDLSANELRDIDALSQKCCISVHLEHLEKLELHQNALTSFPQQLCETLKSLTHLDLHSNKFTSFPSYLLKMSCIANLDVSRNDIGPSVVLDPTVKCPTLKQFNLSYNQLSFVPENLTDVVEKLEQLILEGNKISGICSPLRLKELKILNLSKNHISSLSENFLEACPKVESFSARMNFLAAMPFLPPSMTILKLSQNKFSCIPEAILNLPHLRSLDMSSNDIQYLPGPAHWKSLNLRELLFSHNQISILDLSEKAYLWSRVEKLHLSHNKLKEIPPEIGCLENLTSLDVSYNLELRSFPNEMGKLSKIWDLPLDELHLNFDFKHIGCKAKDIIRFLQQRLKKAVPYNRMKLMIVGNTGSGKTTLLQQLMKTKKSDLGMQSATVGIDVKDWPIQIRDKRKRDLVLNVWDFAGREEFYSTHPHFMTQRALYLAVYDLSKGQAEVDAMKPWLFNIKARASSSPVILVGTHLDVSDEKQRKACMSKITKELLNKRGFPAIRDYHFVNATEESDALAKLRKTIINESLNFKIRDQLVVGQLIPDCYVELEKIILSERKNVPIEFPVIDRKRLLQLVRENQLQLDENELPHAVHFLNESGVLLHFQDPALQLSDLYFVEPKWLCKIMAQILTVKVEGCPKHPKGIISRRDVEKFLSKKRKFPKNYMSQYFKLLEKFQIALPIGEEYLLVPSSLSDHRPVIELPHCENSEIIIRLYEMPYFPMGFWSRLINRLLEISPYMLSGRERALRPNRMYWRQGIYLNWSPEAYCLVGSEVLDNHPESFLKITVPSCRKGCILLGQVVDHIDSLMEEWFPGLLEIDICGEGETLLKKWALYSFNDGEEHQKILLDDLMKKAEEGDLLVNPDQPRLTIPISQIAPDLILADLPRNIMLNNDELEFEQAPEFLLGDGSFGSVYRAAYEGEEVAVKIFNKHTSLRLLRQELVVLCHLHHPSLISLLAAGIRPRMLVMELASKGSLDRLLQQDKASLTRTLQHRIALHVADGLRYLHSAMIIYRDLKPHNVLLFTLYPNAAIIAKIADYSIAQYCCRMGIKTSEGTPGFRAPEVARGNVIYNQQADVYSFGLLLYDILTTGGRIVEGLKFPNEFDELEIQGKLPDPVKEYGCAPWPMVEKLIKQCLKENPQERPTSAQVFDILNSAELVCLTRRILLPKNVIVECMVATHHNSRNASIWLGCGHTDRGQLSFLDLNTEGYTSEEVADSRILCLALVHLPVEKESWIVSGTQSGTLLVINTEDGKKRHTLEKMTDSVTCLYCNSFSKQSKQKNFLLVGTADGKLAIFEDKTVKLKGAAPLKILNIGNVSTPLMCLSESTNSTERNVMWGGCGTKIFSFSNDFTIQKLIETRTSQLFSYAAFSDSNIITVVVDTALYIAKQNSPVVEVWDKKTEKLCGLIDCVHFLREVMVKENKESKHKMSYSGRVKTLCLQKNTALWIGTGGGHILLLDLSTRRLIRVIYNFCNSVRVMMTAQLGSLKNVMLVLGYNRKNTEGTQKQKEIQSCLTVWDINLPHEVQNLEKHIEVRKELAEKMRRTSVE

Structure (SMILES)	Ki [nM]
CNc1nc(Nc2cc(Cl)c(C(=O)O)cc2OC)ncc1Cl [Example 29, 2-chloro-4-(5-chloro-4-(methylamino)pyrimidin-2-ylamino)-5-methoxybenzoic acid]	36
CNc1nc(Nc2ccc(C(=O)O)cc2OC)ncc1Cl [Example 25, 4-(5-chloro-4-(methylamino)pyrimidin-2-ylamino)-3-methoxybenzoic acid]	7
CNc1nc(Nc2ccc(S(C)(=O)=O)cc2OCCF)ncc1Cl [Example 17, 5-Chloro-N2-[2-(2-fluoro-ethoxy)-4-methanesulfonyl-phenyl]-N4-methyl-pyrimidine-2,4-diamine]	12
CNc1nc(Nc2ccc(C(F)(F)F)cc2OC)ncc1Cl [Example 28, 5-chloro-N2-(2-methoxy-4-(trifluoromethyl)phenyl)-N4-methylpyrimidine-2,4-diamine]	35
CNc1nc(Nc2ccc(S(C)(=O)=O)cc2OC(C)C)ncc1C(F)(F)F [Example 16, N2-(2-Isopropoxy-4-methanesulfonyl-phenyl)-N4-methyl-5-trifluoromethyl-pyrimidine-2,4-diamine]	17
CNc1nc(Nc2cc(F)c(C#N)cc2OC)ncc1C(F)(F)F [Example 3, 2-Fluoro-5-methoxy-4-(4-(methylamino)-5-(trifluoromethyl)pyrimidin-2-ylamino)benzonitrile]	22
